Results from publication PMC3909264, “A Novel Acylaminoimidazole Derivative, WN1316, Alleviates Disease Progression via Suppression of Glial Inflammation in ALS Mouse Model” (PLoS ONE, 2014).

What was measured:
[1] = Pharmacokinetics of WN-compounds in mice (brain and serum concentration, HPLC); type: in vivo, mouse (C57BL/6N)
Description: Wild type mice at 8 weeks (male, C57BL/6N) were used for the analysis of CPN-9, WN1303R, WN1312, WN1315 and WN1316 pharmacokinetics. CPN-9 was suspended in 0.5% carboxymethyl cellulose (CMC)-Na (carmellose sodium, Maruishi Pharmaceutical Co., Ltd.), while WN1303R, WN1312 and WN1316 were dissolved in Milli-Q purified water (MQ water) and WN1315 was dissolved in 0.25 N HCl. CPN-9 (100 mg/kg body weight) and the four WN-compounds (50 mg/kg body weight) were injected intragastrically (i.g.). After 15 min, 30 min, 1 h, 2 h, 4 h, 6 h, and 8 h, blood was collected from heart of each mouse anesthetized with 2% isoflurane by inhalation or 4% halothane in a mixture of N2O/O2 (70∶30). Mice were thereafter perfused transcardially with physiological saline containing 10% heparin under anesthesia, and the whole brain was removed. Each blood sample was centrifuged at 1,000×g for 10 min at 4°C, and the serum fraction was collected. The brain was frozen in liquid nitrogen, and was cryopreserved until use.
We mixed serum with deproteinization buffer (0.05 M H2SO4, 2.5 M K2CO3, and […]), and collected the organic layer after centrifugation at 1,500×g for 10 min. The organic layer was mixed with 0.05 M H2SO4, and then, after centrifugation at 1,500×g for 10 min, the water layer was collected. After the addition of methanol, each serum derived sample was subjected to HPLC.
Mouse whole brain was homogenized with acetonitrile and left at −80°C for 10 min. The supernatant was collected after centrifugation at 10,000×g for 10 min at 4°C and was dried under vacuum. The dried sample was re-dissolved in methanol and mixed with two volumes of 10 mM phosphate buffer (pH7.0), after which the supernatant was collected by centrifugation at 10,000×g for 10 min at 4°C and then left at −80°C for 10 min. To further remove debris, the supernatant was filtered (0.45 µm filter), centrifuged (at 10,000×g for 10 min at 4°C), filtered (0.22 µm filter) and finally centrifuged again. Each sample solution from brain was subjected to HPLC.
The concentrations of CPN-9 and WN1316 in the serum and brain samples were determined by HPLC on a CAPCELL PAK C18 column (SHISEIDO) with 50% acetonitrile (CPN-9), 40% acetonitrile (WN1316) or 45% acetonitrile (WN1303R, WN1312, and WN1315) in 10 mM phosphate buffer (pH 7.0).

[2] = Water solubility (stated property); type: physicochemical
[3] = set-up: method as in PMID 23000247; conditions: cited from earlier work
[4] = C57BL/6N mice, intragastric, 100 mg/kg in 0.5% CMC-Na, n = 3, mean ± SD

Cc1cc(C)c(OCC(=O)Nc2nc(-c3ccccn3)cs2)c(C)c1 [CPN-9, N-(4-(2-pyridyl)(1,3-thiazol-2-yl))-2-(2,4,6-trimethylphenoxy) acetamide, reference compound]
AUC0–8: Brain [1, 4]: 1.0±1.3 µg⋅h/g | AUC0–8: Serum [1, 4]: 5.9±0.8 µg⋅h/ml | BBB permeability (in words) ([1]; mouse, in vivo): very poor blood-brain-barrier (BBB) permeability | water solubility (in words) [2]: hardly water soluble | toxicity (in words) [3]: considerable toxicity
